Blank lines part the entries; values can stand above or below the compound they belong to. Active and inactive are the calls of the source. The rule behind the calls is not given here.
Columns and labels:
[1] = target: T1, Serine/threonine-protein kinase DCLK1 (Homo sapiens) (UniProt O15075); conditions: 10 uM
T1 sequence (whole entry): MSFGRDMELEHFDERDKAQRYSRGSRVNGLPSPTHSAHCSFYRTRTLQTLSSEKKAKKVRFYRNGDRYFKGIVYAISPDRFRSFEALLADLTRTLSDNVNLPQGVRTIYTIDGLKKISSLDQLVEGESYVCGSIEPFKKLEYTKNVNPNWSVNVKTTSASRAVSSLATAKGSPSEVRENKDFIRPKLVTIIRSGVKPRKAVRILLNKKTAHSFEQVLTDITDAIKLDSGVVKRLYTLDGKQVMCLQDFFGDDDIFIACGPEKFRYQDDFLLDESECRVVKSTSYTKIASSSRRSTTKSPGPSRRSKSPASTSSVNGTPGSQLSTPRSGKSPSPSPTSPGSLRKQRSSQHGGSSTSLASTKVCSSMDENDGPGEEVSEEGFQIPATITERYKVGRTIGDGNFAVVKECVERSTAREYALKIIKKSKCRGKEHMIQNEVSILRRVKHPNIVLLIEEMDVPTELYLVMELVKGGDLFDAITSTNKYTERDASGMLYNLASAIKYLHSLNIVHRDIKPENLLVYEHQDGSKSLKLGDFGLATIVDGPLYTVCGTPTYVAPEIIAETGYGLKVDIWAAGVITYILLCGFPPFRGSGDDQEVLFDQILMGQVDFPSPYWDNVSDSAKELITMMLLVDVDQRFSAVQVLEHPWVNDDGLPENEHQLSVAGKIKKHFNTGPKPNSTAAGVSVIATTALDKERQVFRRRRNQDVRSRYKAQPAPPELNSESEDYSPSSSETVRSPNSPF

[2] = target: Glycogen synthase kinase-3 beta (Homo sapiens) (UniProt P49841); conditions: 10 uM
[3] = target: T2, Calcium/calmodulin-dependent protein kinase type IV (Homo sapiens) (UniProt Q16566); conditions: 10 uM
T2 sequence (whole entry): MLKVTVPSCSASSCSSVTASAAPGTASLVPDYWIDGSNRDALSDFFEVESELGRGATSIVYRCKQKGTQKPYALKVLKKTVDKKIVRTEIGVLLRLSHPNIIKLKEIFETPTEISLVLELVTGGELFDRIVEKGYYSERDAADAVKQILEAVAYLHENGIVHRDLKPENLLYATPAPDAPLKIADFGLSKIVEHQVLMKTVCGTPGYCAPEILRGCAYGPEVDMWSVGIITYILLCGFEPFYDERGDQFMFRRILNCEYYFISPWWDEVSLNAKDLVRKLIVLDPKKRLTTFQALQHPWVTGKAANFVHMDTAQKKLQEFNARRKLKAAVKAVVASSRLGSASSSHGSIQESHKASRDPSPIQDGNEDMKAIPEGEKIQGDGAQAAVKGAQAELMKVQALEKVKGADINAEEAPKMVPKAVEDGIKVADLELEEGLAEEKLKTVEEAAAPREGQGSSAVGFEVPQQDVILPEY

[4] = target: T3, Tyrosine-protein kinase SYK (Homo sapiens, UniProt P43405); conditions: 10 uM
[5] = target: T3, Tyrosine-protein kinase SYK
[6] = target: Calcium/calmodulin-dependent protein kinase type 1D (Homo sapiens) (UniProt Q8IU85)
[7] = target: Death-associated protein kinase 3 (Homo sapiens) (UniProt O43293); conditions: 10 uM
[8] = Drug metabolism in rat microsomes; assay type: ADME, Microsome; conditions: read-out: Drug metabolism
[9] = Drug metabolism in human hepatocytes assessed per million cells; assay type: ADME, cell-based, Hepatocyte
[10] = Toxicity in NSG mouse assessed as adverse effect at 40 mg/kg administered once daily for 21 days; assay type: organism-based; conditions: in vivo
[11] = target: T4, Dual specificity mitogen-activated protein kinase kinase 5 (Homo sapiens, UniProt Q13163)
T4 sequence (Q13163 whole entry): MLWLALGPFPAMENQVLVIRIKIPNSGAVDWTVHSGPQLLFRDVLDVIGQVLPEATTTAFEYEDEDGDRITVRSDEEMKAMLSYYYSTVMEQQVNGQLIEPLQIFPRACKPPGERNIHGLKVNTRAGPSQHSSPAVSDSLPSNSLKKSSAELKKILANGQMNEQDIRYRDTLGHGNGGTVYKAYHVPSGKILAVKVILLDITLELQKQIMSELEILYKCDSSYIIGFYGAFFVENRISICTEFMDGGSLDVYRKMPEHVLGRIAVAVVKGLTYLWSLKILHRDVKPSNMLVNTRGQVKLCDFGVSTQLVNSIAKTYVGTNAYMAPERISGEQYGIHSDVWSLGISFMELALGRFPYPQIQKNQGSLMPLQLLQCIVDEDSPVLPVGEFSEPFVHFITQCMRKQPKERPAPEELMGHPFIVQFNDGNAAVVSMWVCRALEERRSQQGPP

Cytochrome P450 2D6 = Cytochrome P450 2D6 (Homo sapiens, UniProt P10635); experiment: Inhibition of CYP2D6 (unknown origin); assay type: ADME
[12] = target: T5, Receptor-interacting serine/threonine-protein kinase 4 (Homo sapiens, UniProt P57078)
T5 sequence (P57078 whole entry): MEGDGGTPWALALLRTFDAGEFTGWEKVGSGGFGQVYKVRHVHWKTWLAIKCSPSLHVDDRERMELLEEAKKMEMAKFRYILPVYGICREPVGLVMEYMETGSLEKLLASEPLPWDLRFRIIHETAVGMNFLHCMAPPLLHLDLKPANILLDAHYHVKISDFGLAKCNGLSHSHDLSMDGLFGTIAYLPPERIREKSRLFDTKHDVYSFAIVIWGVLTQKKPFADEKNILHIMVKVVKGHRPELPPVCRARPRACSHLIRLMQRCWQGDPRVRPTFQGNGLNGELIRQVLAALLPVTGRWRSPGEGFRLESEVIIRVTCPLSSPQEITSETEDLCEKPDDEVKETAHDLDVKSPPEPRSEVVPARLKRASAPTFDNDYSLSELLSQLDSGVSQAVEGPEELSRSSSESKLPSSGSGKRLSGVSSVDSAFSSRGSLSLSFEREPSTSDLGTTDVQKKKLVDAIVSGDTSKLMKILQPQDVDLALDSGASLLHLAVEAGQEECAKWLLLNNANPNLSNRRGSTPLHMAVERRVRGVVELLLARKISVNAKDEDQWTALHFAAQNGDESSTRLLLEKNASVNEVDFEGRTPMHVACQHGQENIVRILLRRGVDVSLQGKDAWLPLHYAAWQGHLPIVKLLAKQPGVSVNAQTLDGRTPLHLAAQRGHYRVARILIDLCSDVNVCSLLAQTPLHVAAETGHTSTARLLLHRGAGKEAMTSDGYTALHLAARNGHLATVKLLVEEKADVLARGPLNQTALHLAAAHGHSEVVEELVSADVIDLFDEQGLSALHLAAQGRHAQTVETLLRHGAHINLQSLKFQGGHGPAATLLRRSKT

Cytochrome P450 1A2 = target: T6, Cytochrome P450 1A2 (Homo sapiens, UniProt P05177); experiment: Inhibition of CYP1A2 (unknown origin); assay type: ADME
T6 sequence (P05177 whole entry): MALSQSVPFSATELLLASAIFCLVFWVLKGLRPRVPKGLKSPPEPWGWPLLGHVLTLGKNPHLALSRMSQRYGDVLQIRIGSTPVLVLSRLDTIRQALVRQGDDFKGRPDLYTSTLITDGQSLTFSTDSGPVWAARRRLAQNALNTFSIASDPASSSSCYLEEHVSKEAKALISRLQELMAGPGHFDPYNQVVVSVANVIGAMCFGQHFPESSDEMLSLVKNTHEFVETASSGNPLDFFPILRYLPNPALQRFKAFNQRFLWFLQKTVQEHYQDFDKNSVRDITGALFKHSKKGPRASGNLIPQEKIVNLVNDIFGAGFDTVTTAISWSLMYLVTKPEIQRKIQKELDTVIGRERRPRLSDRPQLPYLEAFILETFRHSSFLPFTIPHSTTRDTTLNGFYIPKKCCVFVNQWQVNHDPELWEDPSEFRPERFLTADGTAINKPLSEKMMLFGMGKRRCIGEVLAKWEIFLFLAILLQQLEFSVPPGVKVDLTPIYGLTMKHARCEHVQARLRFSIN

in vivo = conditions: Crl:CD Sprague-Dawley, rat, iv, 1 mg/kg
Cytochrome P450 3A4 = Cytochrome P450 3A4 (Homo sapiens, UniProt P08684); experiment: Inhibition of CYP3A4 (unknown origin); assay type: ADME
[13] = Drug metabolism in mouse microsomes; assay type: ADME, Microsome; conditions: read-out: Drug metabolism
[14] = target: Phosphatidylinositol 4-phosphate 5-kinase type-1 gamma (Homo sapiens, UniProt O60331)
[15] = target: Mitogen-activated protein kinase kinase kinase 11 (Homo sapiens, UniProt Q16584)
[16] = Drug metabolism in rat plasma assessed as oxidation; assay type: ADME, cell-free
[17] = Drug metabolism in rat plasma assessed as amide hydrolysis; assay type: ADME, cell-free
[18] = Drug excretion in Crl:CD Sprague-Dawley rat urine; assay type: ADME; conditions: in vivo
[19] = Drug metabolism in rat hepatocytes assessed per million cells; assay type: ADME, cell-based, Hepatocyte
[20] = Drug metabolism in human microsomes; assay type: ADME, Microsome; conditions: read-out: Drug metabolism
Mus musculus [21] = experiment: Antidiabetic activity in diet induced obese C57Bl/6J mouse model assessed as reduction in baseline blood glucose level at 25 mg/kg, po administered twice daily for 14 days followed by glucose challenge at 4 hrs post last dose and measured after 10 to 90 mins by OGTT; assay type: functional, organism-based
Mus musculus [22] = experiment: Antidiabetic activity in diet induced obese C57Bl/6J mouse model assessed as reduction in blood glucose level at 25 to 50 mg/kg, po administered 4 hrs prior to glucose stimulation and measured after 10 to 90 mins by OGTT; assay type: functional, organism-based
Mus musculus [23] = experiment: Antidiabetic activity in diet induced obese C57Bl/6J mouse model assessed as reduction in peak blood glucose level at 25 mg/kg, po administered twice daily for 14 days followed by glucose challenge at 4 hrs post last dose and measured after 10 to 90 mins by OGTT; assay type: functional, organism-based
[24] = Drug metabolism in rat plasma assessed as acetylation; assay type: ADME, cell-free
Mus musculus [25] = experiment: Antidiabetic activity in diet induced obese C57Bl/6J mouse model assessed as reduction in plasma insulin level at 25 mg/kg, po administered twice daily for 14 days followed by glucose challenge at 4 hrs post last dose and measured after 10 to 90 mins by OGTT; assay type: functional, organism-based
[26] = Toxicity in diet induced obese C57Bl/6J mouse model assessed as bloating of gastrointestinal tract at 50 mg/kg, po administered twice daily for 14 days; assay type: organism-based; conditions: in vivo
Mus musculus [27] = experiment: Antidiabetic activity in diet induced obese C57Bl/6J mouse model assessed as change in blood glucose AUC at 25 mg/kg, po administered twice daily for 14 days followed by glucose challenge at 4 hrs post last dose and measured after 10 to 90 mins by OGTT; assay type: functional, organism-based
Mus musculus [28] = experiment: Antidiabetic activity in diet induced obese C57Bl/6J mouse model assessed as reduction in plasma insulin level at 25 to 50 mg/kg, po administered 4 hrs prior to glucose stimulation and measured after 10 to 90 mins by OGTT; assay type: functional, organism-based

Sequence of Cytochrome P450 2D6 (P10635 whole entry): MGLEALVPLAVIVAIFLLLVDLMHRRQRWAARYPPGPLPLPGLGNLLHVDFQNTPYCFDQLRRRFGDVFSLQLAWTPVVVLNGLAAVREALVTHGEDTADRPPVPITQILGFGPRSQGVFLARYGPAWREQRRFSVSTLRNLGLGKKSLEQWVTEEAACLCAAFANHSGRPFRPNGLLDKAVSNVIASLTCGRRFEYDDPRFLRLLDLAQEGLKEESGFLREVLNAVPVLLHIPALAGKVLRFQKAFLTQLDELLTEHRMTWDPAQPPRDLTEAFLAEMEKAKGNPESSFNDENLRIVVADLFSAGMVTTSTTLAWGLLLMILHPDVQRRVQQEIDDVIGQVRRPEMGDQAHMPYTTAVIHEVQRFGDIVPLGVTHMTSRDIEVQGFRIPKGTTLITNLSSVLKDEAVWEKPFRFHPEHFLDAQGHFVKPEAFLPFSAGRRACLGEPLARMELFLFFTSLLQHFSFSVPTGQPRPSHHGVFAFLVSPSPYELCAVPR
Sequence of Cytochrome P450 3A4 (P08684 whole entry): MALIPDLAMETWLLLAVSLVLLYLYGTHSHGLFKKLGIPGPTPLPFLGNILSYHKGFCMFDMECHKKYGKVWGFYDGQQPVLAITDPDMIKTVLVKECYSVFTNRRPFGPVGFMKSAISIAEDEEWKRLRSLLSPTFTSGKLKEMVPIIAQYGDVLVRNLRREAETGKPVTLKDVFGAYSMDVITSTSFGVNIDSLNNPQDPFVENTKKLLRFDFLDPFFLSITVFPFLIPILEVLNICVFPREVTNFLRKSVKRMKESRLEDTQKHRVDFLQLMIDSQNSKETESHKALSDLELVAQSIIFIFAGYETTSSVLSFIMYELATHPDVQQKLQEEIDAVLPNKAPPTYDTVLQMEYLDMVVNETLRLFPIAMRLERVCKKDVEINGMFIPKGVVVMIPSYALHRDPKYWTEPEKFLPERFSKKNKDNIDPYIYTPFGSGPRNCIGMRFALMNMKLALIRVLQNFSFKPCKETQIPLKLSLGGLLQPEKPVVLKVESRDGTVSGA
Sequence of Death-associated protein kinase 3 (Homo sapiens) (O43293 whole entry, looked up): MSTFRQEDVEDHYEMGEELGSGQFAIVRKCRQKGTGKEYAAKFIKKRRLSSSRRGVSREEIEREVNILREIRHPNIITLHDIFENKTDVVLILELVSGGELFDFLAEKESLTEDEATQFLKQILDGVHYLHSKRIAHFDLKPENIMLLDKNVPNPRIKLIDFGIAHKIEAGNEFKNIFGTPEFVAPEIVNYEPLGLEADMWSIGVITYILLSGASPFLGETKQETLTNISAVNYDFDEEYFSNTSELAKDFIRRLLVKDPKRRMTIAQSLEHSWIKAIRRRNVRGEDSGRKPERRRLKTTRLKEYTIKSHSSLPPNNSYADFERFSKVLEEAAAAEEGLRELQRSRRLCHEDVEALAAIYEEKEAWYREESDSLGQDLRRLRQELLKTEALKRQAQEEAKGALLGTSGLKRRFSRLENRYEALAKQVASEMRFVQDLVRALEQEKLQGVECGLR
Sequence of Phosphatidylinositol 4-phosphate 5-kinase type-1 gamma (O60331 whole entry): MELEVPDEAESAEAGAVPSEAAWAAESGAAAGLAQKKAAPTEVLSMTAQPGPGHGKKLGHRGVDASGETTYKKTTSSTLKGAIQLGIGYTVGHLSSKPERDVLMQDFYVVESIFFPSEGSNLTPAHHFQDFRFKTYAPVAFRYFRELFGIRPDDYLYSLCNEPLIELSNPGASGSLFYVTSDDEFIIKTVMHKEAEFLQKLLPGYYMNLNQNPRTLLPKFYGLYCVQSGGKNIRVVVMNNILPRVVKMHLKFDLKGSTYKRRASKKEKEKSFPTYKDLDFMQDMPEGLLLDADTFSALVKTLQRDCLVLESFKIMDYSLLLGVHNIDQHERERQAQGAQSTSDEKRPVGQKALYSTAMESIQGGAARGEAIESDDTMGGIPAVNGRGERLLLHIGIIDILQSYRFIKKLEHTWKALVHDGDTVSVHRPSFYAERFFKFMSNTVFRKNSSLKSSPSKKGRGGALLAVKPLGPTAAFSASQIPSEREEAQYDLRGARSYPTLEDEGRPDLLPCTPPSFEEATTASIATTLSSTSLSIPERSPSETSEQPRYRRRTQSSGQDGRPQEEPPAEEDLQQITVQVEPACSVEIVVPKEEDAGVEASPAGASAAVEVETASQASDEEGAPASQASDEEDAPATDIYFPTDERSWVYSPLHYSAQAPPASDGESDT
Sequence of Glycogen synthase kinase-3 beta (Homo sapiens) (P49841 whole entry, looked up): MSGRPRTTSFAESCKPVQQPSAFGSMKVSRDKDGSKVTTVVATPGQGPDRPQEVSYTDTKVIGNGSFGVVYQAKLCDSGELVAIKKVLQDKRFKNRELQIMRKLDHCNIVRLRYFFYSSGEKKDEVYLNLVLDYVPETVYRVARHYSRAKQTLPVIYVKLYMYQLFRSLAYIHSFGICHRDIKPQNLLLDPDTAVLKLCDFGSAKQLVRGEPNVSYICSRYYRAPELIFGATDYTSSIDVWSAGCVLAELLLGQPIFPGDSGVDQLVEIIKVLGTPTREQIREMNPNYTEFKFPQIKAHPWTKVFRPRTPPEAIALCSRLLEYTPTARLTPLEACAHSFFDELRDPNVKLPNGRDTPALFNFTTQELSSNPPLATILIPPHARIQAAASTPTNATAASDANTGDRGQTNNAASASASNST
Sequence of Calcium/calmodulin-dependent protein kinase type 1D (Homo sapiens) (Q8IU85 whole entry, looked up): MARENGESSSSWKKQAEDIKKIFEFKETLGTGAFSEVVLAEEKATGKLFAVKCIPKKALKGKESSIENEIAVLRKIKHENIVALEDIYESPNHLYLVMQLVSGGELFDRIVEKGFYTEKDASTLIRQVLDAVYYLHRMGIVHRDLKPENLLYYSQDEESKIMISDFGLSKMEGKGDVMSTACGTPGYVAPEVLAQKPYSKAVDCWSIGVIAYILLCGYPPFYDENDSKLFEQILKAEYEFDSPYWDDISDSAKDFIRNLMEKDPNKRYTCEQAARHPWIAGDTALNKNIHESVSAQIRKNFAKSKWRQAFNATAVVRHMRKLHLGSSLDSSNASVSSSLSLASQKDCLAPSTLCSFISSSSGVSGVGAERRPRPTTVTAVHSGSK
Sequence of Mitogen-activated protein kinase kinase kinase 11 (Q16584 whole entry): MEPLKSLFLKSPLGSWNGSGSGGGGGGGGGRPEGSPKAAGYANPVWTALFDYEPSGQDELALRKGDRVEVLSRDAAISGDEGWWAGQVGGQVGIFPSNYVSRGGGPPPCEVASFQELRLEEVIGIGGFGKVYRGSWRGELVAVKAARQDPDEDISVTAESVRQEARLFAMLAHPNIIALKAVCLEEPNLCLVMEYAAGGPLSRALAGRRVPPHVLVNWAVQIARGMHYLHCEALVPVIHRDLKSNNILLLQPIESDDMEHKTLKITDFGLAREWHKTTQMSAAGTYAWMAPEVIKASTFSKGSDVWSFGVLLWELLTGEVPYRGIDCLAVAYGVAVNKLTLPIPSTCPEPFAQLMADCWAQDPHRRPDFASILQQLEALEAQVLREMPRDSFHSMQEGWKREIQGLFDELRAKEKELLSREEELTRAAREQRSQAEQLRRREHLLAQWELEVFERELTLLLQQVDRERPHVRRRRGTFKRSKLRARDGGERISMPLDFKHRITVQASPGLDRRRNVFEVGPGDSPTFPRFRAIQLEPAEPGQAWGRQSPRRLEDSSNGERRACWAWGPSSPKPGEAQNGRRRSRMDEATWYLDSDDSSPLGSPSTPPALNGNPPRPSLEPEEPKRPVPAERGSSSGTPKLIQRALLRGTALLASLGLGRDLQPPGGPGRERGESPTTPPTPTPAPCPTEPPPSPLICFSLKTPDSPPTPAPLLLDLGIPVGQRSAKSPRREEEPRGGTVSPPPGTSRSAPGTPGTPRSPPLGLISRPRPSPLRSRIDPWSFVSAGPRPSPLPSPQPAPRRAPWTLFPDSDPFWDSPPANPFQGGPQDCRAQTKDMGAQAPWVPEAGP

SMILES: NCCNc1ncc(C(N)=O)c(Nc2cccc(C(F)(F)F)c2)n1
ΔTm [1]: 0.11 °C | ΔTm [2]: 3.4 °C | ΔTm [3]: 1.34 °C | ΔTm [4]: 7.51 °C | IC50 [5]: 0.007 µM | ΔTm [6]: 5.44 °C | ΔTm [7]: 4.05 °C

microsomal CLint [8]: 3 µL/min/mg | Drug metabolism [9]: 19 µL/min | IC50 [11]: 0.025 µM | IC50 (Cytochrome P450 2D6): > 20 µM | IC50 [12]: 5.69 µM | IC50 (Cytochrome P450 1A2): > 20 µM | Vd (in vivo): 18.5 L/kg | IC50 (Cytochrome P450 3A4): > 20 µM | microsomal CLint [13]: 6 µL/min/mg | IC50 [14]: 11.2 µM | IC50 [15]: 2.75 µM
SMILES: CC(C)c1cc(Nc2nc(N3CCC[C@H](N)C3)ncc2C(N)=O)cc(C(C)C)n1
Activity [10]: Non-Toxic

microsomal CLint [8]: < 1 µL/min/mg | Drug metabolism [16]: Metabolite_Detected | Drug metabolism [17]: Metabolite_Detected | Drug excretion [18]: Metabolite_Detected | Drug metabolism [19]: 11 µL/min | microsomal CLint [20]: 13 µL/min/mg | IC50 (Cytochrome P450 2D6): > 20 µM | Drug metabolism [24]: Metabolite_Detected | IC50 (Cytochrome P450 1A2): > 20 µM | IC50 (Cytochrome P450 3A4): > 20 µM
SMILES: CC(C)(C#N)c1cc(Nc2nc(N3CCC[C@H](N)C3)ncc2C(N)=O)cc(C(C)(C)C#N)c1
Activity (Mus musculus [21]): Active | Activity (Mus musculus [22]): Active | Activity (Mus musculus [23]): Active | Activity (Mus musculus [25]): Active | Activity [26]: Toxic | Activity (Mus musculus [27]): inactive | Activity (Mus musculus [28]): Active

From ChEMBL document CHEMBL4627396 (J Med Chem, 2020)
